Structures are written as SMILES.

Here are results for 27 compounds from ChEMBL document CHEMBL1862790, “Optimisation of fenarimol series for the treatment of Chagas disease”.

Series [1] can be described thus: (§1) DNDI: Cytotoxicity against L-6 rat myoblasts from skeletal muscle cells. As to conditions: L6 rat skeletal muscle myoblast cells, IC50.
The test system of series [2] is Trypanosoma cruzi. In words: microbe, parasite or virus in culture. The class given is functional, Tulahuen LacZ, Clone C4.
For series [3], the system named is Trypanosoma cruzi. In words: microbe, parasite or virus in culture. The class given is functional, organism-based, Tulahuen LacZ, Clone C4.
The next series concerns L6. The description is as §1. The following applies: L6 rat skeletal muscle myoblast cells.
The mark [4] stands for this setting: Trypanosoma cruzi, Tulahuen LacZ, Clone C4.

In the case of `Fc1cc(Cl)ccc1C(NC1CCN(c2ccc(F)c(C(F)(F)F)c2)CC1)c1cccnc1` (stereo unspecified), the results for the IC50 (in series [1]; in the series with Trypanosoma cruzi [3] (setting [4])) were 58600 nM and 25.6 nM, respectively. Besides, the IC90 in the series with Trypanosoma cruzi [2] (setting [4]) is 64 nM.
On to `COc1cncc(N2CCC(NC(c3ccc(Cl)cc3)c3cccnc3)CC2)c1` (stereo unspecified), for which the IC50 in series [1] was 58900 nM; in the series with Trypanosoma cruzi [3] (setting [4]), 42 nM. In the series with Trypanosoma cruzi [2] (setting [4]), this compound had an IC90 of 96 nM.
Consider `Cn1cc(CN2CCC(NC(c3ccc(Cl)cc3)c3cccnc3)CC2)c(C(F)(F)F)n1` (stereo unspecified), for which the IC50 stood at 51300 nM in series [1] and 52 nM in the series with Trypanosoma cruzi [3] (setting [4]). The 90% effect level with Trypanosoma cruzi [2] (setting [4]) (IC90) was put at 85 nM.
For `Fc1cc(Cl)ccc1N1CCC(NC(c2ccc(Cl)cc2)c2cccnc2)CC1` (stereo unspecified), the IC50 in series [1] turned out to be 56700 nM; with Trypanosoma cruzi [3] (setting [4]), 19.8 nM. This compound also displayed an IC90 with Trypanosoma cruzi [2] (setting [4]) of 35 nM.
Consider `CCn1cc(C(NC2CCN(c3ccc(C(F)(F)F)cc3)CC2)c2cccnc2)cn1` (stereo unspecified), for which the IC50 was greater than 100000 nM in series [1] and 53.5 nM with Trypanosoma cruzi [3] (setting [4]). Also, in the series on Trypanosoma cruzi [2] (setting [4]), the IC90 came to 92 nM.
Taken in the same sequence, the figures for `Clc1ccc(C(NC2CCN(c3ccc(Br)cn3)CC2)c2cccnc2)cc1` (stereo unspecified) were 61800 nM, 25.7 nM and 84 nM.
On to `CC(O)C(C)N1CCC(NC(c2ccc(Cl)cc2)c2cccnc2)CC1` (stereo unspecified), for which the IC50 in series [1] was greater than 100000 nM; in the series with Trypanosoma cruzi [3] (setting [4]), 1810 nM. Also, the IC90 in the series on Trypanosoma cruzi [2] (setting [4]) was found to be 3160 nM.
Taken in the same sequence, the figures for `Fc1cc(Cl)ccc1C(NC1CCN(c2ccc(OC(F)(F)F)cc2)CC1)c1cccnc1` (stereo unspecified) were 48000 nM, 8 nM and 24 nM.
For the compound `O=C(C1CCCCC1)N1CCC(NC(c2ccc(C(F)(F)F)cc2)c2cnccn2)CC1` (stereo unspecified), the IC50 in the series with L6 turned out to be 92400 nM; with Trypanosoma cruzi [3], 250 nM. In the series on Trypanosoma cruzi [2], this compound gave an IC90 of 860 nM.
As to `FC(F)(F)c1ccc(N2CCC(NC(c3cccnc3)c3cnn(Cc4ccccc4)c3)CC2)cc1` (stereo unspecified), the IC50 in series [1] turned out to be 51600 nM; in the series on Trypanosoma cruzi [3] (setting [4]), 6 nM. The compound further returned an IC90 with Trypanosoma cruzi [2] (setting [4]) of 11 nM.
Turning to `CCn1cc(C(NC2CCN(c3ccc(F)c(F)c3)CC2)c2cccnc2)cn1` (stereo unspecified), the IC50 in series [1] was found to be 62300 nM; in the series on Trypanosoma cruzi [3] (setting [4]), 99 nM. The IC90 with Trypanosoma cruzi [2] (setting [4]) amounted to 328 nM.
For `CC(C)(C)N1CCC(NC(c2ccc(Cl)cc2)c2cccnc2)CC1` (stereo unspecified), the IC50 in series [1] is greater than 100000 nM; with Trypanosoma cruzi [3] (setting [4]), 3060 nM. In the series on Trypanosoma cruzi [2] (setting [4]), this compound gave an IC90 of 8660 nM.
As for `Fc1ccc(N2CCC(NC(c3cccnc3)c3ccc(Cl)cc3F)CC2)cc1Cl` (stereo unspecified), the values for the IC50 (in series [1]; in the series on Trypanosoma cruzi [3] (setting [4])) were 54500 nM and 28.5 nM, respectively. In addition, in the series with Trypanosoma cruzi [2] (setting [4]), the IC90 came to 72 nM.
Consider `CS(=O)(=O)c1ccc(N2CCC(NC(c3cccnc3)c3cnn(CC(F)(F)F)c3)CC2)cc1` (stereo unspecified), for which the IC50 in series [1] is greater than 100000 nM; in the series with Trypanosoma cruzi [3] (setting [4]), 4160 nM. Besides, in the series on Trypanosoma cruzi [2] (setting [4]), the IC90 was greater than 10000 nM.
As for `Clc1ccc(CN2CCC(NC(c3ccc(Cl)cc3)c3cccnc3)CC2)cc1` (stereo unspecified), the IC50 in series [1] is 20300 nM; in the series on Trypanosoma cruzi [3] (setting [4]), 66 nM. In the series on Trypanosoma cruzi [2] (setting [4]), this compound had an IC90 of 98 nM.
In the case of `N#Cc1cc(N2CCC(NC(c3cccnc3)c3ccc(Cl)cc3F)CC2)ccc1F` (stereo unspecified), the values for the IC50 (in series [1]; in the series with Trypanosoma cruzi [3] (setting [4])) were 38400 nM and 20.7 nM, respectively. In the series with Trypanosoma cruzi [2] (setting [4]), the IC90 was 47 nM.
Taken in the same sequence, the figures for `Fc1ccc(N2CCC(NC(c3cccnc3)c3ccc(Cl)cc3F)CC2)cc1F` (stereo unspecified) were 34200 nM, 14 nM and 42 nM.
Regarding `O=S(=O)(c1ccc(C(F)(F)F)cc1)N1CCC(NC(c2cccnc2)c2ccc(Cl)cc2F)CC1` (stereo unspecified), the IC50 was 18000 nM in series [1] and 36 nM with Trypanosoma cruzi [3] (setting [4]). Also, the IC90 with Trypanosoma cruzi [2] (setting [4]) came out at 95 nM.
The matching figures for `Cn1cc(C(NC2CCN(c3ccc(C(F)(F)F)cc3)CC2)c2cccnc2)cn1` (stereo unspecified): greater than 100000 nM, 102 nM and 249 nM.
For the compound `CC(C)(O)CN1CCC(NC(c2ccc(Cl)cc2)c2cccnc2)CC1` (stereo unspecified), the figures for the IC50 (in series [1]; in the series on Trypanosoma cruzi [3] (setting [4])) were greater than 100000 nM and 565 nM, respectively. Besides, in the series on Trypanosoma cruzi [2] (setting [4]), the IC90 is 1020 nM.
As for `CC(C)C(CO)N1CCC(NC(c2ccc(Cl)cc2)c2cccnc2)CC1` (stereo unspecified), the values for the IC50 (in series [1]; in the series on Trypanosoma cruzi [3] (setting [4])) were greater than 100000 nM and 62 nM, respectively. In the series with Trypanosoma cruzi [2] (setting [4]), this compound registered an IC90 greater than 100 nM.
Turning to `FC(F)(F)Cn1cc(C(NC2CCN(c3ccc(OC(F)(F)F)cc3)CC2)c2cccnc2)cn1` (stereo unspecified), the IC50 is 66600 nM in series [1] and 65 nM in the series on Trypanosoma cruzi [3] (setting [4]). In addition, the IC90 in the series with Trypanosoma cruzi [2] (setting [4]) was greater than 100 nM.
In the case of `Fc1cc(Cl)ccc1C(NC1CCN(Cc2ccc(C(F)(F)F)cc2)CC1)c1cccnc1` (stereo unspecified), the IC50 in series [1] stood at 26600 nM; in the series on Trypanosoma cruzi [3] (setting [4]), 48 nM. The compound further gave an IC90 with Trypanosoma cruzi [2] (setting [4]) of 93 nM.
As for `COc1ccc(N2CCC(NC(c3cccnc3)c3ccc(Cl)cc3F)CC2)cc1F` (stereo unspecified), the IC50 in series [1] was 47900 nM; in the series with Trypanosoma cruzi [3] (setting [4]), 7.3 nM. For the same compound, the IC90 in the series on Trypanosoma cruzi [2] (setting [4]) turned out to be 22 nM.
For the compound `Fc1ccc(N2CCC(NC(c3cccnc3)c3ccc(Cl)cc3F)CC2)c(C(F)(F)F)c1` (stereo unspecified), the IC50 stood at 58900 nM in series [1] and 32 nM with Trypanosoma cruzi [3] (setting [4]). In the series on Trypanosoma cruzi [2] (setting [4]), the IC90 came to 50 nM.
In the case of `CC(=O)C(C)N1CCC(NC(c2ccc(Cl)cc2)c2cccnc2)CC1` (stereo unspecified), the IC50 is 87700 nM in series [1] and 42.3 nM with Trypanosoma cruzi [3] (setting [4]). The compound also gave an IC90 with Trypanosoma cruzi [2] (setting [4]) of 76 nM.
The matching figures for `FC(F)(F)Cn1cc(C(NC2CCN(c3ccc(C(F)(F)F)cc3)CC2)c2cccnc2)cn1` (stereo unspecified): 71200 nM, 46 nM and 88 nM.

Usually IC50 stands for the midpoint of a concentration-inhibition curve. A word on the IC90: it is the concentration at which the effect reaches the 90% level.
